Test results from PubChem BioAssay (NCI).
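Dose response: 5 concentrations. Exposure: 48 h. Format: 96-well plates. Endpoint: linear interpolation; highest concentration if not reached. The concentration for 50% growth inhibition is given as GI50. TGI marks complete inhibition of growth.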

Assays:
Experiment in all cases: growth of human tumour cells (NCI), 48 h
786-0 renal = tested on: 786-0 renal
OVCAR-4 ovarian = tested on: OVCAR-4 ovarian
ACHN renal = tested on: ACHN renal
MCF7 breast = tested on: MCF7 breast
SN12C renal = tested on: SN12C renal
HT29 colon = tested on: HT29 colon
HL-60(TB) leukemia = tested on: HL-60(TB) leukemia
SF-268 CNS = tested on: SF-268 CNS
NCI-H226 lung = tested on: NCI-H226 lung

SMILES	TGI (786-0 renal)	TGI (OVCAR-4 ovarian)	TGI (ACHN renal)	TGI (MCF7 breast)	TGI (SN12C renal)	TGI (HT29 colon)	TGI (HL-60(TB) leukemia)	TGI (SF-268 CNS)	TGI (NCI-H226 lung)	GI50 (OVCAR-4 ovarian)	GI50 (ACHN renal)	GI50 (SN12C renal)	GI50 (HT29 colon)	GI50 (HL-60(TB) leukemia)	GI50 (SF-268 CNS)	GI50 (NCI-H226 lung)
NC1=NCC(CN2CCCC2)O1 (centres undefined)	> 100 µM	> 100 µM	> 100 µM	> 100 µM	> 100 µM	> 100 µM	> 100 µM	> 100 µM								
Cc1ccccc1OC(C)C(=O)NN1C(=O)CC(=O)N(c2ccccc2)C1=S (centres undefined)	> 100 µM	> 100 µM	> 100 µM	> 100 µM	> 100 µM	> 100 µM	61.2 µM	> 100 µM	> 100 µM							
CO[C@H]1C[C@H](O[C@H]2CC[C@]3(C=O)[C@H]4CC[C@]5(C)[C@@H](C6=CC(=O)OC6)CC[C@]5(O)[C@@H]4CC[C@]3(O)C2)O[C@H](C)[C@H]1O	1.57 µM	0.341 µM	1.92 µM	13.1 µM	0.201 µM		2.51 µM	0.577 µM	1.28 µM							
COC(=O)C1=C(O)C(C(=O)OC)[C@]2(O)[C@H](C(=O)OC)[C@H]1C[C@@H](c1ccc([N+](=O)[O-])cc1)[C@H]2C(=O)OC (some centres undefined)	31 µM	> 100 µM	32.9 µM		47.7 µM	55.6 µM	45.8 µM	51.6 µM	65.1 µM							
NCCC1CN(C(=O)OCc2ccccc2)c2ccccc21 (centres undefined)	29.8 µM	> 55.8 µM	> 54.6 µM	22.9 µM	27.3 µM	25.8 µM		39.4 µM	26.8 µM							
O=C(NNCc1ccc(Cl)cc1)Nc1cccc2ccccc12	> 100 µM	> 100 µM	> 100 µM	> 100 µM	> 100 µM	> 100 µM	> 100 µM	> 100 µM	> 100 µM							
COC(=O)c1c(-c2ccc(Cl)cc2)cc2c3ccccc3n(C)c2c1C(=O)OC	> 100 µM	> 100 µM	> 100 µM	> 100 µM	> 100 µM	> 100 µM	> 100 µM	> 100 µM	> 100 µM							
COc1ccccc1CNCCCCCCCCCCCCN1C(=O)c2ccc3c4c(ccc(c24)C1=O)C(=O)N(CCCCCCCCCCCCNCc1ccccc1OC)C3=O		> 50 µM	> 50 µM		> 50 µM	> 50 µM	> 50 µM	> 50 µM	> 50 µM	> 50 µM	> 50 µM	> 50 µM	2.01 µM	> 50 µM	> 50 µM	> 50 µM
Cn1c2ccccc2n2c3ncccc3c(=S)c(C#N)c12	> 100 µM	> 100 µM	> 100 µM	> 100 µM	> 100 µM	> 100 µM	> 100 µM	> 100 µM	> 100 µM							
O=C1c2ccccc2C(=O)N1c1nc(-c2ccc(Cl)cc2)cc(N2N=C(c3ccc(Br)cc3)CC2c2ccccc2)n1 (centres undefined)	> 34.1 µM	> 33 µM	> 21.7 µM	4.57 µM	17.1 µM	9.66 µM	> 100 µM	7.72 µM	29.8 µM							
CCOC(=O)c1cnccc1CC1(C#N)c2ccccc2C=CN1C(=O)c1ccccc1 (centres undefined)	> 100 µM	> 100 µM	> 100 µM	> 100 µM	97.3 µM	36 µM	> 100 µM	82 µM	> 100 µM							
CCN(CC)c1nc(N(C)C)c2ccccc2n1	> 100 µM	> 100 µM	> 100 µM	> 100 µM	> 100 µM	> 100 µM	> 100 µM	> 100 µM	69.3 µM							
O=C1CC(n2cccc2)c2c(Br)sc(Br)c21 (centres undefined)	43.8 µM	33.4 µM	31.8 µM	26.9 µM	31.1 µM	32.1 µM	41.4 µM	31.2 µM	42.2 µM							
Cc1cc2cc3c(cc2c(-c2ccc(N)cc2)n1)OCO3	57.4 µM		> 100 µM	53.6 µM	> 100 µM	62.2 µM	47.3 µM	79.3 µM								
NS(=O)(=O)c1ccc(NNc2c3ccccc3nc3c(C(=O)Nc4ccc(S(=O)(=O)Nc5ncccn5)cc4)cccc23)cc1	> 25 µM	> 25 µM	> 25 µM	> 25 µM	> 25 µM	> 25 µM	> 25 µM	> 25 µM	> 25 µM							
Cc1nc2ccc(Cl)cc2c2c1CCN2c1ccccc1	25.2 µM	> 100 µM	62.4 µM	36 µM	17.2 µM	> 100 µM	11.1 µM	83.9 µM	22 µM							
CCCNc1ncnc2[nH]ncc12	> 100 µM	> 100 µM	> 100 µM	> 100 µM	> 100 µM	> 100 µM	> 100 µM	> 100 µM								
O=c1cc(NCc2ccncc2)[nH]c(=O)[nH]1	> 100 µM	> 100 µM	> 100 µM	> 100 µM	> 100 µM	> 100 µM	> 100 µM	> 100 µM	> 100 µM							
C=C(C)[C@@H]1CC[C@]2(C(=O)O)CC[C@]3(C)[C@H](CCC4[C@@]5(C)CC[C@H](C(=O)/C=C/c6ccc(O)c(O)c6)C(C)(C)[C@@H]5CC[C@]43C)[C@@H]12 (some centres undefined)	30.2 µM	> 100 µM	6.51 µM	14.9 µM			> 100 µM	> 100 µM								
CCOC(=O)C1CCCCN1CCc1c[nH]c2ccccc12 (centres undefined)	> 100 µM	> 100 µM	> 100 µM	> 100 µM	> 100 µM	> 100 µM		> 100 µM	> 100 µM							
C(/Cc1ccc2c(c1)OCO2)=N\NC1=NCCCN1	> 100 µM	> 100 µM	> 100 µM	> 100 µM	> 100 µM	> 100 µM	> 100 µM	> 100 µM	> 100 µM							
Cc1ccc(-c2n[nH]c(=O)n2/N=C\c2ccccc2)cc1	> 100 µM	> 100 µM	> 100 µM	> 100 µM	> 90.4 µM	> 100 µM	> 100 µM	> 89.1 µM	> 100 µM							
COc1c(C)c(C/C=C(\C)CC/C=C(\C)CCC=C(C)C)c(OC)c(OC)c1OC	> 100 µM	> 100 µM	> 100 µM	> 100 µM	> 100 µM	> 100 µM		> 100 µM								
